According to US11390660B2, “Uterine cancer treatments” (Immatics Biotechnologies GmbH, priority 2016, dated 2022):

What was measured:
[1] = system: CD8+ T cells; assay: In vitro T-cell priming assay with aAPCs loaded with peptide/MHC complexes and anti-CD28 antibody, pMHC multimer readout; assay type: cell-based, human; details: in vitro immunogenicity, HLA-A*02 restricted peptides, positive wells among evaluable (Table 10B)
Source text: In order to obtain information regarding the immunogenicity of the TUMAPs of the present invention, the inventors performed investigations using an in vitro T-cell priming assay based on repeated stimulations of CD8+ T cells with artificial antigen presenting cells (aAPCs) loaded with peptide/MHC complexes and anti-CD28 antibody.
In order to perform in vitro stimulations by artificial antigen presenting cells loaded with peptide-MHC complex (pMHC) and anti-CD28 antibody, the inventors first isolated CD8+ T cells from fresh HLA-A*02 leukapheresis products via positive selection using CD8 microbeads (Miltenyi Biotec, Bergisch-Gladbach, Germany) of healthy donors obtained from the University clinics Mannheim, Germany, after informed consent.
PBMCs and isolated CD8+ lymphocytes were incubated in T-cell medium (TCM) until use consisting of RPMI-Glutamax (Invitrogen, Karlsruhe, Germany) supplemented with 10% heat inactivated human AB serum (PAN-Biotech, Aidenbach, Germany), 100 U/ml Penicillin/100 μg/ml Streptomycin (Cambrex, Cologne, Germany), 1 mM sodium pyruvate (CC Pro, Oberdorla, Germany), 20 μg/ml Gentamycin (Cambrex). 2.5 ng/ml IL-7 (PromoCell, Heidelberg, Germany) and 10 U/ml IL-2 (Novartis Pharma, Nürnberg, Germany) were also added to the TCM at this step.
Generation of pMHC/anti-CD28 coated beads, T-cell stimulations and readout was performed in a highly defined in vitro system using four different pMHC molecules per stimulation condition and 8 different pMHC molecules per readout condition.
The purified co-stimulatory mouse IgG2a anti human CD28 Ab 9.3 (Jung et al., 1987) was chemically biotinylated using Sulfo-N-hydroxysuccinimidobiotin as recommended by the manufacturer (Perbio, Bonn, Germany). Beads used were 5.6 μm diameter streptavidin coated polystyrene particles (Bangs Laboratories, Illinois, USA).
800.000 beads/200 μI were coated in 96-well plates in the presence of 4×12.5 ng different biotin-pMHC, washed and 600 ng biotin anti-CD28 were added subsequently in a volume of 200 μI. Stimulations were initiated in 96-well plates by co-incubating 1×10^6 CD8+ T cells with 2×10^5 washed coated beads in 200 μI TCM supplemented with 5 ng/ml IL-12 (PromoCell) for 3 days at 37° C. Half of the medium was then exchanged by fresh TCM supplemented with 80 U/ml IL-2 and incubating was continued for 4 days at 37° C. This stimulation cycle was performed for a total of three times. For the pMHC multimer readout using 8 different pMHC molecules per condition, a two-dimensional combinatorial coding approach was used as previously described (Andersen et al., 2012) with minor modifications encompassing coupling to 5 different fluorochromes. Finally, multimeric analyses were performed by staining the cells with Live/dead near IR dye (Invitrogen, Karlsruhe, Germany), CD8-FITC antibody clone SK1 (BD, Heidelberg, Germany) and fluorescent pMHC multimers. For analysis, a BD LSRII SORP cytometer equipped with appropriate lasers and filters was used. Peptide specific cells were calculated as percentage of total CD8+ cells. Evaluation of multimeric analysis was done using the FlowJo software (Tree Star, Oregon, USA). In vitro priming of specific multimer+ CD8+ lymphocytes was detected by comparing to negative control stimulations.

[2] = target: HLA-A*02:01 (Homo sapiens, UniProt P04439, D140Y/D185E/D98H/E176V/E277Q/G131W/G231S/I119V/I121R/I166T/I218V/L300P/L318F/N151K/N90K/P208A/P217A/Q86G/Q94H/R138H/R169H/T345S); assay: MHC binding assay: UV-ligand exchange with β2m ELISA; details: peptide exchange yield, binding to HLA-A*02:01
Source text: Candidate peptides for T cell based therapies according to the present invention were further tested for their MHC binding capacity (affinity). The individual peptide-MHC complexes were produced by UV-ligand exchange, where a UV-sensitive peptide is cleaved upon UV-irradiation, and exchanged with the peptide of interest as analyzed. Only peptide candidates that can effectively bind and stabilize the peptide-receptive MHC molecules prevent dissociation of the MHC complexes. To determine the yield of the exchange reaction, an ELISA was performed based on the detection of the light chain (β2m) of stabilized MHC complexes. The assay was performed as generally described in Rodenko et al. (Rodenko et al., 2006).
96 well MAXISorp plates (NUNC) were coated over night with 2 ug/ml streptavidin in PBS at room temperature, washed 4× and blocked for 1 h at 37° C. in 2% BSA containing blocking buffer. Refolded HLA-A*02:01/MLA-001 monomers served as standards, covering the range of 15-500 ng/ml. Peptide-MHC monomers of the UV-exchange reaction were diluted 100 fold in blocking buffer. Samples were incubated for 1 h at 37° C., washed four times, incubated with 2 ug/ml HRP conjugated anti-β2m for 1 h at 37° C., washed again and detected with TMB solution that is stopped with […]. Absorption was measured at 450 nm. Candidate peptides that show a high exchange yield (preferably higher than 50%, most preferred higher than 75%) are generally preferred for a generation and production of antibodies or fragments thereof, and/or T cell receptors or fragments thereof, as they show sufficient avidity to the MHC molecules and prevent dissociation of the MHC complexes.

Substance | Wells positive [%] [1] | Peptide exchange [2]
9 (SLYPGTETM; listed as Homo sapiens) [compound 9] | + (<20% = +) | +++ (>50 = +++)
20 (ALLGFVTDL; listed as Homo sapiens) [compound 20] | ++ (20%-49% = ++) | ++++ (> 75% = ++++)
23 (GLGPNLVGV; listed as Homo sapiens) [compound 23] | ++++ (> = 70% = ++++) | ++++ (> 75% = ++++)
3 (GLDGATYTV; listed as Homo sapiens) [compound 3] | ++++ (> = 70% = ++++) | +++ (>50 = +++)
6 (SLLSELVEA; listed as Homo sapiens) [compound 6] | + (<20% = +) | ++++ (> 75% = ++++)
1 (KLLDNLHDL; listed as Homo sapiens) [compound 1] | + (<20% = +) | ++++ (> 75% = ++++)
